From patent US20160206580A1, “[…] LIPOSOME FORMULATIONS OF TRANEXAMIC ACID” (Pacira Pharmaceuticals, Inc., priority 2015, published 2016)
Where two headings read alike, the source gives them in different places.

Legend:
[1] = Toxicokinetics of TXA in plasma after subcutaneous injection; type: in vivo, beagle dog
Protocol: (§1) The objectives of this study were to determine the potential toxicity of TXA formulations, when given by subcutaneous injection to the beagle dog and to evaluate the potential reversibility of any findings, in comparison to the Reference Control Item, Tranexamic acid. In addition, the toxicokinetic profiles were determined.
(§2) The Test, Reference Control and Reference Items were administered to the appropriate animals via subcutaneous injection into the scapular and mid-dorsal areas on Days 1, 4, 7, and 10. The dose volume for each animal was based on the most recent body weight measurement. The volume for each dose was administered using a syringe/needle over one injection. Injection sites were rotated between two delimited sites (and the same site for all animals on a given day). Dosing area was shaved as needed and injection sites were marked with a pen (target area of 5 cm×5 cm). The first dosing site was in the mid-scapular region of the back and the second dosing site was caudal to the first site in the mid-dorsum region.
Blood was collected from the jugular vein (or cephalic vein) from all animals in lithium heparin-containing tubes.
Samples were mixed gently and placed on crushed wet ice until centrifugation, which was carried out as soon as practical. The samples were centrifuged for 10 minutes in a refrigerated centrifuge (set to maintain the temperature at 4° C.) at 2700 rpm. The resultant plasma was separated, transferred to uniquely labeled clear polypropylene tubes, and frozen immediately over dry ice and transferred to a freezer set to maintain −80° C.
Plasma samples were analyzed for concentration of the tranexamic acid using a validated analytical procedure.
Toxicokinetic parameters were generated from the test item (tranexamic acid) individual concentrations in plasma from Days 1 and 10, whenever practical.

[2] = tested on: beagle dog; test: Evaluation of toxicity of subcutaneous administration; type: in vivo; conditions: sc
Protocol: as §1
21 male and 21 female beagle dogs were used in this study. The animals were from 6 to 7 months old and weighed between 7.5 and 9.8 kg (males) and 6.0 and 8.2 kg (females) at initiation of dosing.
as §2
Blood was collected from the jugular vein. Urine was collected overnight from individually housed animals. […]

[3] = Percent free (unencapsulated) TXA in the formulation; type: physicochemical; conditions: formulations dosed in the rat PK study (Table 2)
Description: The present embodiments provide pharmaceutical formulations comprising multivesicular liposomes (MVLs) containing tranexamic acid (TXA) which minimize the side effects of TXA while maintaining or improving efficacy and lengthening the duration of the effect. The present embodiments also provide pharmaceutical formulations comprising TXA encapsulated in the MVLs and unencapsulated TXA. The term “unencapsulated” as used herein, means that the biologically active ingredient (e.g., tranexamic acid) is outside the MVL particles, for example, in the suspending solution. The unencapsulated TXA provides immediate efficacy of TXA while the use of TXA encapsulated MVLs formulations in the instant embodiments results in the release of TXA for an extended period. The processes of preparing the DEPO-TXAs and the methods of using the DEPO-TXA formulations for treating, ameliorating, or preventing blood loss are also disclosed herewith. […]
For the 40 mg/mL formulation, % PPV is about 50.0% and the assumed interstitial volume (mL) is about 20%, rendering about 62% free TXA outside of the multivesicular liposomes. […] During the first 12 h, the released TXA contributes to the initial TXA peak measured in the plasma. […]

Question: With `NC[C@H]1CC[C@H](C(=O)O)CC1` [TXA, tranexamic acid] as the molecule, how does the “mean peak exposures (Cmax) higher for the free TXA group than DepoTXA” value ([1]; 120 mg/kg dose level, Day 1) read?
Answer: Its value is 28%.

Question: What about the “peak TXA levels lower for the free TXA group than DepoTXA” value ([1]; 120 mg/kg dose level, Day 10, after fourth and final sc dose) of the same molecule?
Answer: Its value is 14%.

Question: And the “administered TXA cleared after 12 hours (percent of total AUC)” value ([1]; beagle dog, sc, FIGS. 5A, 5B)?
Answer: The value was 94%.

Question: What about the “time to exposure to nearly the full TXA dose” value ([1]; beagle dog, sc, FIGS. 6A, 6B) of the same molecule?
Answer: Its value is “less than 24 hours”.

Question: What about the AUC(0-t) ([1]; beagle, dog, plasma, sc, 120 mg/kg, beagle dog, sc, 120 mg/kg/dose, Day 1, read-out: AUC0-72) of the same molecule?
Answer: The AUC(0-t) was 490 µg·h/mL.

Question: What about the Cmax ([1]; beagle, dog, plasma, sc, 120 mg/kg, beagle dog, sc, 120 mg/kg/dose, Day 1, read-out: Cmax) of the same molecule?
Answer: The Cmax was 140 µg/mL.

Question: What about the Tmax ([1]; beagle, dog, plasma, sc, 120 mg/kg, beagle dog, sc, 120 mg/kg/dose, Day 1, read-out: Tmax) of the same molecule?
Answer: Its Tmax is 1.2 h.

Question: What about the half-life ([1]; beagle, dog, plasma, sc, 120 mg/kg, beagle dog, sc, 120 mg/kg/dose, Day 1, read-out: t1/2 (converted)) of the same molecule?
Answer: The half-life was 25.7 h.

Question: And the AUC(0-t) ([1]; beagle, dog, plasma, sc, 120 mg/kg, beagle dog, sc, 120 mg/kg/dose, Day 10, read-out: AUC0-72)?
Answer: Its AUC(0-t) is 484 µg·h/mL.

Question: What about the Cmax ([1]; beagle, dog, plasma, sc, 120 mg/kg, beagle dog, sc, 120 mg/kg/dose, Day 10, read-out: Cmax) of the same molecule?
Answer: The Cmax was 119 µg/mL.

Question: What about the Tmax ([1]; beagle, dog, plasma, sc, 120 mg/kg, beagle dog, sc, 120 mg/kg/dose, Day 10, read-out: Tmax) of the same molecule?
Answer: The Tmax was 1.1 h.

Question: And the half-life ([1]; beagle, dog, plasma, sc, 120 mg/kg, beagle dog, sc, 120 mg/kg/dose, Day 10, read-out: t1/2 (converted))?
Answer: Its half-life is 28.9 h.

Question: And the half-life ([1]; beagle, dog, plasma, sc, 120 mg/kg, mean±SD, sc, 120 mg/kg, Day 1, read-out: Mean terminal elimination half-life (t1/2elim) (converted))?
Answer: The half-life was 25.7 ± 2 h.

Question: What about the half-life ([1]; beagle, dog, plasma, sc, 120 mg/kg, mean±SD, sc, 120 mg/kg, Day 10, read-out: Mean terminal elimination half-life (t1/2elim) (converted)) of the same molecule?
Answer: Its half-life is 28.9 ± 2.9 h.

Question: What about the Cmax ([1]; both sexes, beagle, dog, plasma, sc, 120 mg/kg, genders combined mean, sc, 120 mg/kg, Day 10, read-out: mean peak levels (Cmax)) of the same molecule?
Answer: Its Cmax is 119 ± 15.4 µg/mL.

Question: What about the AUC(0-t) ([1]; both sexes, beagle, dog, plasma, sc, 120 mg/kg, mean±SD, n=10, genders combined, sc, 120 mg/kg, Day 1, read-out: AUC0-24) of the same molecule?
Answer: Its AUC(0-t) is 475 ± 35.1 µg·h/mL.

Question: And the AUC(0-t) ([1]; both sexes, beagle, dog, plasma, sc, 120 mg/kg, mean±SD, n=10, genders combined, sc, 120 mg/kg, Day 1, read-out: AUC0-48)?
Answer: The AUC(0-t) was 485 ± 36.1 µg·h/mL.

Question: And the AUC(0-t) ([1]; both sexes, beagle, dog, plasma, sc, 120 mg/kg, mean±SD, n=10, genders combined, sc, 120 mg/kg, Day 1, read-out: AUC0-72)?
Answer: The AUC(0-t) was 490 ± 36.5 µg·h/mL.

Question: And the Tmax ([1]; both sexes, beagle, dog, plasma, sc, 120 mg/kg, mean±SD, n=10, genders combined, sc, 120 mg/kg, Day 1, read-out: Tmax (plasma concentrations of TXA peaked))?
Answer: The Tmax was 1.2 ± 0.42 h.

Question: What about the Cmax ([1]; both sexes, beagle, dog, plasma, sc, 120 mg/kg, mean±SD, n=10, genders combined, sc, 120 mg/kg, Day 1, read-out: mean peak levels (Cmax)) of the same molecule?
Answer: Its Cmax is 140 ± 19.2 µg/mL.

Question: And the AUC(0-t) ([1]; both sexes, beagle, dog, plasma, sc, 120 mg/kg, mean±SD, n=10, genders combined, sc, 120 mg/kg, Day 10, read-out: AUC0-24)?
Answer: Its AUC(0-t) is 468 ± 42.5 µg·h/mL.

Question: What about the AUC(0-t) ([1]; both sexes, beagle, dog, plasma, sc, 120 mg/kg, mean±SD, n=10, genders combined, sc, 120 mg/kg, Day 10, read-out: AUC0-48) of the same molecule?
Answer: Its AUC(0-t) is 479 ± 44.2 µg·h/mL.

Question: What about the AUC(0-t) ([1]; both sexes, beagle, dog, plasma, sc, 120 mg/kg, mean±SD, n=10, genders combined, sc, 120 mg/kg, Day 10, read-out: AUC0-72) of the same molecule?
Answer: Its AUC(0-t) is 484 ± 45.2 µg·h/mL.

Question: What about the Tmax ([1]; both sexes, beagle, dog, plasma, sc, 120 mg/kg, mean±SD, n=10, genders combined, sc, 120 mg/kg, Day 10, read-out: Tmax (mean peak concentrations reached)) of the same molecule?
Answer: The Tmax was 1.1 ± 0.32 h.

Question: What about the AUC(0-inf) ([1]; both sexes, beagle, dog, plasma, mean±SD, n=10, genders combined, sc, 120 mg/kg, Day 1) of the same molecule?
Answer: The AUC(0-inf) was 495 ± 36.8 µg·h/mL.

Question: What about the “clinical signs following dosing” value [2] of the same molecule?
Answer: The value was “at a similar incidence and severity”.

Question: What about the “Percent free TXA” value [3] of the same molecule?
Answer: The value was 100%.
